For one experiment, the system named is α-amylase. Description: In vitro α-amylase inhibition activity (starch-iodine, 580 nm). The format is biochemical.
A further experiment deals with α-glucosidase. Description: In vitro α-glucosidase inhibitory activity (pNPG substrate, absorbance at 405 nm). The format is biochemical. Here is the method: After the pre-incubation, pNPG (substrate, 30 μL, 5 mM) prepared in 0.1 M phosphate buffer (pH 6.8) was poured into the wells of the microplate, which were then incubated at 37 °C for 20 minutes. […] For inhibition studies, various concentrations of test samples were utilized. […] All data were presented as means ± SD values, obtained from a microplate reader for all experiments.

Method for α-amylase: In vitro α-amylase inhibition studies were performed following a reported methodology with slight modification.[20] First, to prepare our reaction mixture, 10 μL of enzyme solution (0.1 mg mL^−1) was combined with a 10 mM phosphate buffer at pH 6.9 (6 mM NaCl), and then mixed with the various concentrations of the tested sample. The resultant reaction mixtures placed in a microplate were incubated for 30 minutes at 37 °C. After the incubation period, 40 μL of starch solution (1%) was added; subsequently, this assay plate was incubated at 37 °C for 10 minutes. Finally, the reaction was terminated by adding 20 μL of 1.0 M HCl to the prepared solution, followed by the addition of 75 μL of iodine solution. Quantification was performed spectrophotometrically at 580 nm. […] Inhibition activity (%) was measured using eqn (1).1 [drawing 1] Here, the control sample excluded the α-amylase and the tested sample. The inhibitor concentration used to inhibit α-amylase activity (50%) under assay was determined as IC50 values. The findings were depicted as means ± SD values, obtained from microplate readers.

“(E)-2-((adamantan-2-ylimino)methyl)-6-bromo-4-chlorophenol [AHB]”: the “α-amylase inhibition, result in words” value in the experiment on α-amylase is “relatively inactive”. For the same substance, in the experiment on α-glucosidase, the “α-glucosidase inhibition, result in words” value was “relatively inactive”.

(Values after PMC12134986, “Synthesis, characterization and antidiabetic studies of novel amantadine-derived Schiff base (AHB) and its Zn(II), Co(II), Cr(III) and VO(IV) complexes” (RSC Advances, 2025).)
